Assay results: US8252832B2, “Kinesin inhibitors as cancer therapeutics” (Novartis AG, priority 2007, dated 2012)

Assay: MV4; 11-luc disseminated disease model, host response
Format: in vivo, mouse
Conditions: q4d × 3, i.v
Procedure: The efficacy study in the disseminated disease model was performed using immunodeficient NOD-SCID female mice approximately 7-8 weeks old (Jackson Laboratories, Bar Harbor, Me.). […] Routine animal care and assurance of welfare were as described above. […] Doses were adjusted to each animal's body weight. […] Approximately 10 minutes prior to imaging, mice were injected i.p. with 150 mg/kg luciferin (Xenogen Corporation, Alameda, Calif.), followed by anesthetization with isoflurane. Photon emission was measured using a charge coupled device camera in the IVIS imaging system (Xenogen Corporation). Briefly, a gray-scale image of the mice was captured, followed by an overlay of a bioluminescence map representing the spatial distribution of photons detected from cleaved luciferin in the cancer cells expressing luciferase. Signal intensity was quantified using a customized version of the IGOR Pro version 4.09A Software (WaveMetrics, Inc., Lake Oswego, Oreg.) called Living Image version 2.50.2 (Xenogen). The sum of all detected photon counts from the dorsal+ventral views was determined. Bioluminescence of cancer cells in the animals was measured by imaging on designated days until the first mice developed hind limb paralysis due to disease burden, the main end point for when to humanely euthanize mice. The day of euthanasia for each mouse was recorded and the remaining percentage of mice surviving was plotted over time (Kaplan-Meier survival analysis). P values were calculated using the log-rank test (GraphPad Prism 4.0 software) to assess differences between treated and control groups (p<0.05 was considered significant). […] Data analysis was performed as described above.

CC(C)(C)[C@H](c1nc(-c2cc(F)ccc2F)cn1Cc1ccccc1)N(CC[C@H](N)CF)C(=O)CO [Compound IIa]
% Max. Δ body weight, (Day) (0.25 mg/kg, D5): 5.6 ± 1.3%
Max. Δ body weight (g) (Day) (0.25 mg/kg, D5): 1.1 ± 0.44 g
% Max. Δ body weight, (Day) (0.5 mg/kg, D10): −2.6 ± 2.3%
Max. Δ body weight (g) (Day) (0.5 mg/kg, D10): -0.57 ± 0.45 g
% Max. Δ body weight, (Day) (1 mg/kg, D10): −4.2 ± 1.7%
Max. Δ body weight (g) (Day) (1 mg/kg, D10): -0.77 ± 0.32 g
